What all share (assay type): physicochemical
A short description of data set [1]: Partition coefficient (LogP), octanol/water method. From the text:
[24] Determined using the octanol/water method according to: J. A.Arnott, S. L.Planey, Expert Opin. Drug Discovery 2012, 7, 863–875.
Calibration with 11a was achieved through the preparation of several samples of different concentrations and their analysis on RP HPLC. These analyses were repeated three times in order to obtain an average curve of calibration. The following linear regression was obtained: Y = 470.12 X + 284.02 and R = 0.9887, where Y is the absorption in mAUs -1 at 214 nm and X the concentration of 11a in mM.
Figure S3. calibration curve of 11a.
Calculation of Partition coefficient ( LogP)4
2.5 mg (4.0 µmol) 11a was dissolved in 1.7 mL octanol -H2O mixture (0.85 mL 1 -Octanol + 0.85 mL milli-Q H2O) in a 5 mL vial. In order to mix the layers, the vial was shaken on vertex for 1 min. Then the mixture was transferred to a separating funnel. The separating funnel was closed and left standing for 3 h to separate the organic and the H2O layer. Both layers were taken separately and submitted tonreverse phase HPLC. The concentration of both layers was determined by HPLC - […]
Amount of 11a in 1-octanol = 2.41 mg/mL
Amount of 11a in H2O = 0.09 mg/mL
Partition coefficient (P) = amount of 11a in 1-octanol/ amount of 11a in H2O […]
Following the same procedure for starting material 11: LogP = -1.53
4 J. R. Espinosa, C. R. Wand, C. Vega, E. Sanz, D. Frenkel, J. Chem. Phys. 2018, 149, 224501.
(1 picture or pasted object on this page, not shown here)

Data set [2] in a line: Solubility in water of EBX reagents.
The nature of data set [3]: Retention time in RP-HPLC as qualitative measure of lipophilicity. The settings on record: analytical RP-HPLC. How it is done: For example, the retention time of peptide 11 shifted from 5.8 to 13.6 min for 11 a and 20.2 min for 11 b (See SI). The partition coefficient (LogP) of product 11 a was determined to be 1.53 compared with −1.43 for 11.[24] […]
followed by dimethylformamide wash (4 x 3 mL). Fmoc groups were then removed by shaking the resin with 20% v/v piperidine in dimethylformamide at 400 rpm, over 5 minutes. This step was carried out twice. Next, washing steps were achieved with dimethylformamide (5 x 3 mL). Finally, resin was dried with dichloromethane (5 x 3 mL).
Peptide cleavage and deprotection: Peptides were deprotected and cleaved from the resin under reducing conditions, by treatment with 2.5% v/v water and 2.5% v/v triisopropylsilane (TIPS) in neat trifluoroacetic acid (5 mL). The resulting mixture was shaken for 2 hours at 400 rpm, at room temperature. The resin was removed by filtration and peptides were precipitated in cold diethyl ether (20 mL), followed by a 2 hours incubation at -20 °C. Peptides were pelleted by centrifugation at 4000 rpm, at 4 °C, for 5 minutes. […]
A. Fractions containing the desired peptide were lyophilized. The purity was assessed by analyzing a 10-20 mM peptide solution by RP-HPLC (HPLC gradient: 100% A to 100% B in 30 minutes. At the same time, low-resolution mass spectrometric measurements were also acquired. […]

A short description of data set [4]: Cleavage of thioesters with hydroxylamine. The settings on record: HPLC. From the text: The obtained thioalkynes constitute a new type of lipophilic compounds lacking the electrophilic carbonyl group present in natural palmitoylated peptides, which is required for their hydrolysis. In presence of trifluoroacetic acid (TFA), clean hydration to give thioesters was observed (Scheme 5 a). This hydration can be performed in a one pot protocol with silylated and alkylated alkynes on both small and larger peptides to give thioesters such as 11 aa–bb, 17 aa–bb, 18 aa and 23 aa–bb in 58–82 % yield. 11 bb, 17 bb and 23 bb are then natural palmitoylated products. […] Numerous enzymatic and chemical methods have been reported for the cleavage of palmitoyl groups on cysteine.[25] […] Nevertheless, treatment with a KF solution followed by hydroxylamine also allowed to cleave this thioester with 90 % conversion. Taken together, our work therefore gives access to lipophilic peptide derivatives modifiable/cleavable under different conditions, which can be exploited depending on the desired application.
Cleavage of palmitoylthioester of Ac-Trp-Met-Asn-Ser-Thr-Gly-Phe-Thr-Lys-Val-Cys-Gly-Ala-NH2 (17bb) A 1.5 mL vial was charged with 17bb (0.5 mg, […],1.0 equiv.) 70 µL 1M NH2OH with a small magnetic bar. The NH2OH solution was freshly prepared in Milli Q water. Then the reaction mixture was stirred for 4 h at rt. […]
Yield for 17 and disulfide quantitative (retention time 5.0). […]

[5] abbreviates: shake-flask 1-octanol/milli-Q H2O (0.85 mL + 0.85 mL), 2.5 mg, vortexed 1 min, left standing 3 h, both layers by RP-HPLC-UV 214 nm.

Where a SMILES comes first, the peptide text is derived from it. The star is where a group is joined. Ethynyl(2-Si(iPr)3) = CC(C)[Si](C#C*)(C(C)C)C(C)C

`CC(=O)N[C@@H](C)C(=O)N[C@@H](CSC#C[Si](C(C)C)(C(C)C)C(C)C)C(=O)NCC(=O)N[C@@H](Cc1ccccc1)C(N)=O` [11a] (Ac-AC(Ethynyl(2-Si(iPr)3))GF-NH2): in data set [1] (setting [5]), the logP was determined as 1.53 and the “partition coefficient (LogP)” value came out at 1.43. In data set [1] (shake-flask 1-octanol/milli-Q H2O, HPLC-UV 214 nm), the “Partition coefficient (P) = amount in 1-octanol / amount in H2O” value worked out at 26.78.
Consider K/Na-5-sulfonate TIPS-EBX-SO3M [4a], for which the “increase of solubility in water compared to TIPS-EBX (1)” value in data set [2] (4a vs 1, water) is given as “more than fifty fold”. The solubility in water in data set [2] amounted to 0.46 mg/mL; in data set [2] (Supporting Information), 460 mg/mL.
In the case of `CC[C@H](C)[C@H](NC(=O)[C@H](Cc1ccccc1)NC(=O)[C@H](CSC#C[Si](C(C)C)(C(C)C)C(C)C)NC(=O)[C@@H](NC(=O)[C@H](CCC(N)=O)NC(=O)[C@H](CSC#C[Si](C(C)C)(C(C)C)C(C)C)NC(=O)[C@H](Cc1c[nH]cn1)NC(=O)[C@H](Cc1ccccc1)NC(C)=O)C(C)C)C(=O)N[C@H](C(N)=O)[C@@H](C)O` [24a, Alkynylated (Phe32-Thr40) Ac-Phe-His-Cys-Gln-Val-Cys-Phe-Ile-Thr-NH2] (Ac-FHC(Ethynyl(2-Si(iPr)3))QVC(Ethynyl(2-Si(iPr)3))FIT-NH2), in data set [3] (SI, HPLC gradient Method 1), the “retention time (HPLC-MS of reaction mixture)” value is reported as 19.7.
Take C14H29-EBX-SO3M [4b]: the solubility in water in data set [2] and in data set [2] (Supporting Information) was 450 mg/mL in each case.
Regarding `CC(=O)N[C@@H](C)C(=O)N[C@@H](CS)C(=O)NCC(=O)N[C@@H](Cc1ccccc1)C(N)=O` [compound 11, Ac-Ala-Cys-Gly-Phe-NH2] (Ac-ACGF-NH2), in data set [3] (HPLC gradient Method 3 per SI), the “retention time in RP-HPLC” value is on record as 5.8 min.
In the case of “silylthioester of H-Ala-Cys-Ala-Phe-Lys-Asp-NH2 [18aa]”, the “cleavage of the thioester by hydroxylamine” value in data set [4] (1 M NH2OH in Milli Q water, rt, 4 h) is recorded as “reacts only very slowly”. The “conversion in thioester cleavage with KF and hydroxylamine” value in data set [4] (KF (28.7 equiv) and 1M NH2OH, 37 °C, 14 h) is 90%.

In general, logP refers to the decadic logarithm of the partition coefficient of the neutral form, usually between octanol and water.

Values taken from publication PMC8456932, “Amphiphilic Iodine(III) Reagents for the Lipophilization of Peptides in Water” (Angewandte Chemie (International Ed. in English), 2021).
